Data as given in patent US12539292B2, “BRM targeting compounds and associated methods of use” (Arvinas Operations, Inc., priority 2018, dated 2026).
Where two headings read alike, the source gives them in different places.

Target: T1, BRM (Homo sapiens, UniProt P51531)
T1 construct: In-Cell Western Screen of BRM Degradation in SW1573 Cells; endogenous in cells; host or cells: SW1573
Assay: In-cell Western screen of BRM degradation in SW1573 cells (Dmax and DC50)
Assay type: cell-based
Method in brief: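 Overnight compound treatment (18-20 h, final DMSO 0.1%) of SW1573 cells in DMEM with 10% FBS precedes fixation and in-cell Western staining with 800/680 nm dye-labelled secondaries. Plate images give DC50 and maximal degradation.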

[1] = BRM degradation, SW1573 cells, read-out: DC50
[2] = BRM degradation, SW1573 cells, tested at the top concentration of between 0.3 and 10 μM, read-out: Dmax (%) (% degraded)
[3] = BRM degradation, SW1573 cells, read-out: Dmax (% degraded)
[4] = SW1573, % degraded, when tested at the top concentration of between 0.3 and 10 μM, read-out: BRM Dmax (%)
[5] = degradation of BRM, read-out: BRM DC50

T1 sequence (P51531 whole entry): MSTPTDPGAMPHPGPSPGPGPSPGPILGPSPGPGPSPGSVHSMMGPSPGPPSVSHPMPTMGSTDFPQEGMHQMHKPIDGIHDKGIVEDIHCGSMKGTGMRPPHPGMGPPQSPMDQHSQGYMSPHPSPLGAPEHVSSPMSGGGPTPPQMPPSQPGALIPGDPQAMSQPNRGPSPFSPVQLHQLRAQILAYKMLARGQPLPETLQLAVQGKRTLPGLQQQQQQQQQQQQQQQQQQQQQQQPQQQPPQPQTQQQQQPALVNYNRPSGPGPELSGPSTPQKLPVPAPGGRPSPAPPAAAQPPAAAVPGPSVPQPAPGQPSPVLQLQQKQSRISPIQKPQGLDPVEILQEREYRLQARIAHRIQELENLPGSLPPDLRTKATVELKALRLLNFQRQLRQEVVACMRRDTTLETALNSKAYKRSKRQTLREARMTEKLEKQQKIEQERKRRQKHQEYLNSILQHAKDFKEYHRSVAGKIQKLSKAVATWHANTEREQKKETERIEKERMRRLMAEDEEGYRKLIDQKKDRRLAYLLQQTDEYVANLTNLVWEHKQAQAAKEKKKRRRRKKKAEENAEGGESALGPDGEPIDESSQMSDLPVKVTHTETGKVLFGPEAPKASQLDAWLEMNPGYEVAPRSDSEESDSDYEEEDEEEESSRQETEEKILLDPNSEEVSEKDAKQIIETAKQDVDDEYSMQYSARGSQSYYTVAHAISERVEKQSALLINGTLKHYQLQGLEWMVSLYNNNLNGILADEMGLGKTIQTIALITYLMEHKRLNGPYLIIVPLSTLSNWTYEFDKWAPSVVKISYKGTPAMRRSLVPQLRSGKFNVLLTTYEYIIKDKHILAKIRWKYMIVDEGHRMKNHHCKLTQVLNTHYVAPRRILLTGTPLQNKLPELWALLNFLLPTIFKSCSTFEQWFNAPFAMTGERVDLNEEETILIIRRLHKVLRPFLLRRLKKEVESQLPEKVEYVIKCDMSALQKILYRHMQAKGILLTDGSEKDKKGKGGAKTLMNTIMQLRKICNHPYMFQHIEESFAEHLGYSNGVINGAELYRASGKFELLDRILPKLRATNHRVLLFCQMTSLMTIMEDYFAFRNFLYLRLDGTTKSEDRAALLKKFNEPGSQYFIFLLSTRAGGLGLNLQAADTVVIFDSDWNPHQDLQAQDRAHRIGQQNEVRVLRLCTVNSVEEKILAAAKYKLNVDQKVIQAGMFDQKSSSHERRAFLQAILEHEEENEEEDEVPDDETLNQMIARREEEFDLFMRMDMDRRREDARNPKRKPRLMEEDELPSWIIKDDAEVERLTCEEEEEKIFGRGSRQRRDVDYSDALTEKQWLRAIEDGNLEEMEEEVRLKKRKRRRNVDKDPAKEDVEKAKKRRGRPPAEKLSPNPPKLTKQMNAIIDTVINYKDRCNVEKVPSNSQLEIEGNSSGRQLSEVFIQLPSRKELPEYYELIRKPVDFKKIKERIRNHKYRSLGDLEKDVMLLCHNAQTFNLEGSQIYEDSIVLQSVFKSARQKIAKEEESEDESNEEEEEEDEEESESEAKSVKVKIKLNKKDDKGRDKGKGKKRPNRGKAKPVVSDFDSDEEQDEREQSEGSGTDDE

SMILES | DC50 [1] [nM] | Dmax [2] [%] | Dmax [3] [%] | further results
CC(C)[C@@H](C(=O)N1C[C@H](O)C[C@H]1C(=O)N[C@@H](C)c1ccc(C#N)cc1)c1cc(OCCN2CCC(O[C@H]3C[C@H](Oc4cc(N5C6CCC5CN(c5cc(-c7ccccc7O)nnc5N)C6)ccn4)C3)CC2)no1 [compound 203, (2S,4R)-1-((2R)-2-(3-(2-(4-((1r,3R)-3-((4-(3-(3-amino-6-(2-hydroxyphenyl)pyridazin-4-yl)-3,8-diazabicyclo[3.2.1]octan-8-yl)pyridin-2-yl)oxy)cyclobutoxy)piperidin-1-yl)ethoxy)isoxazol-5-yl)-3-methylbutanoyl)-N-((S)-1-(4-cyanophenyl)ethyl)-4-hydroxypyrrolidine-2-carboxamide] | < 2.5 | > 75 | – | –
Cc1ncsc1-c1ccc([C@H](C)NC(=O)[C@@H]2C[C@@H](O)CN2C(=O)[C@@H](c2cc(N3CCC(N4CCC(O[C@H]5C[C@H](Oc6cc(N7C8CCC7CN(c7cc(-c9ccccc9O)nnc7N)C8)ccn6)C5)CC4)CC3)no2)C(C)C)cc1 [compound 685, (2S,4R)-1-((2R)-2-(3-(4-((1r,3R)-3-((4-(3-(3-amino-6-(2-hydroxyphenyl)pyridazin-4-yl)-3,8-diazabicyclo[3.2.1]octan-8-yl)pyridin-2-yl)oxy)cyclobutoxy)-[1,4'-bipiperidin]-1'-yl)isoxazol-5-yl)-3-methylbutanoyl)-4-hydroxy-N-((S)-1-(4-(4-methylthiazol-5-yl)phenyl)ethyl)pyrrolidine-2-carboxamide] | < 2.5 | – | > 75 | –
COCc1ncsc1-c1ccc([C@H](C)NC(=O)[C@@H]2C[C@@H](O)CN2C(=O)[C@H](c2cc(OCCN3CCC(O[C@H]4C[C@H](Oc5cc(N6C7CCC6CN(c6cc(-c8ccccc8O)nnc6N)C7)ccn5)C4)CC3)no2)C(C)C)cc1 [compound 184, (2S,4R)-1-((2S)-2-(3-(2-(4-((1r,3S)-3-((4-(3-(3-amino-6-(2-hydroxyphenyl)pyridazin-4-yl)-3,8-diazabicyclo[3.2.1]octan-8-yl)pyridin-2-yl)oxy)cyclobutoxy)piperidin-1-yl)ethoxy)isoxazol-5-yl)-3-methylbutanoyl)-4-hydroxy-N-((S)-1-(4-(4-(methoxymethyl)thiazol-5-yl)phenyl)ethyl)pyrrolidine-2-carboxamide] | > 30 | – | – | –
Cc1ncsc1-c1ccc([C@H](CN(C)C)NC(=O)[C@@H]2C[C@@H](O)CN2C(=O)[C@@H](c2cc(OCCN3CCN(CCOc4cc(N5C6CCC5CN(c5cc(-c7ccccc7O)nnc5N)C6)ccn4)CC3)no2)C(C)C)cc1 [compound 281, (2S,4R)-1-((2R)-2-(3-(2-(4-(2-((4-(3-(3-amino-6-(2-hydroxyphenyl)pyridazin-4-yl)-3,8-diazabicyclo[3.2.1]octan-8-yl)pyridin-2-yl)oxy)ethyl)piperazin-1-yl)ethoxy)isoxazol-5-yl)-3-methylbutanoyl)-N-((R)-2-(dimethylamino)-1-(4-(4-methylthiazol-5-yl)phenyl)ethyl)-4-hydroxypyrrolidine-2-carboxamide] | < 2.5 | > 75 | – | –
COC[C@@H](NC(=O)[C@@H]1C[C@@H](O)CN1C(=O)[C@@H](c1cc(N2CCC(CN3CCC(O[C@H]4C[C@H](Oc5cc(N6C7CCC6CN(c6cc(-c8ccccc8O)nnc6N)C7)ccn5)C4)CC3)CC2)no1)C(C)C)c1ccc(-c2scnc2C)cc1 [compound 667, (2S,4R)-1-((2R)-2-(3-(4-((4-((1r,3r)-3-((4-(3-(3-amino-6-(2-hydroxyphenyl)pyridazin-4-yl)-3,8-diazabicyclo[3.2.1]octan-8-yl)pyridin-2-yl)oxy)cyclobutoxy)piperidin-1-yl)methyl)piperidin-1-yl)isoxazol-5-yl)-3-methylbutanoyl)-4-hydroxy-N-((S)-2-methoxy-1-(4-(4-methylthiazol-5-yl)phenyl)ethyl)pyrrolidine-2-carboxamide] | 10 to 30 | – | > 75 | –
Cc1ncsc1-c1ccc([C@H](CC#N)NC(=O)[C@@H]2C[C@@H](O)CN2C(=O)[C@@H](c2cc(N3CCC(CN4CCC(O[C@H]5C[C@H](Oc6cc(N7C8CCC7CN(c7cc(-c9ccccc9O)nnc7N)C8)ccn6)C5)CC4)CC3)no2)C(C)C)cc1 [compound 671, (2S,4R)-1-((2R)-2-(3-(4-((4-((1r,3r)-3-((4-(3-(3-amino-6-(2-hydroxyphenyl)pyridazin-4-yl)-3,8-diazabicyclo[3.2.1]octan-8-yl)pyridin-2-yl)oxy)cyclobutoxy)piperidin-1-yl)methyl)piperidin-1-yl)isoxazol-5-yl)-3-methylbutanoyl)-N-((S)-2-cyano-1-(4-(4-methylthiazol-5-yl)phenyl)ethyl)-4-hydroxypyrrolidine-2-carboxamide] | < 2.5 | – | > 75 | –
Cc1ncsc1-c1ccc([C@H](C)NC(=O)[C@@H]2C[C@@H](O)CN2C(=O)[C@@H](c2cc(OCCC3CCN(C[C@H]4C[C@H](Oc5cc(N6C7CCC6CN(c6cc(-c8ccccc8O)nnc6N)C7)ccn5)C4)CC3)no2)C(C)C)cc1 [compound 417, (2S,4R)-1-((2R)-2-(3-(2-(1-(((1r,3R)-3-((4-(3-(3-amino-6-(2-hydroxyphenyl)pyridazin-4-yl)-3,8-diazabicyclo[3.2.1]octan-8-yl)pyridin-2-yl)oxy)cyclobutyl)methyl)piperidin-4-yl)ethoxy)isoxazol-5-yl)-3-methylbutanoyl)-4-hydroxy-N-((S)-1-(4-(4-methylthiazol-5-yl)phenyl)ethyl)pyrrolidine-2-carboxamide] | – | – | – | Dmax [4]: > 75%; DC50 [5]: < 2.5 nM
Cc1ncsc1-c1ccc([C@H](C)NC(=O)[C@@H]2C[C@@H](O)CN2C(=O)[C@@H](c2cc(OCCN3CCC(O[C@H]4C[C@H](C#C[C@@H](C)n5cc(-c6cc(-c7ccccc7O)nnc6N)cn5)C4)CC3)no2)C(C)C)cc1 [compound 414, (2S,4R)-1-((R)-2-(3-(2-(4-((1R,3R)-3-((R)-3-(4-(3-amino-6-(2-hydroxyphenyl)pyridazin-4-yl)-1 H-pyrazol-1-yl)but-1-yn-1-yl)cyclobutoxy)piperidin-1-yl)ethoxy)isoxazol-5-yl)-3-methylbutanoyl)-4-hydroxy-N-((S)-1-(4-(4-methylthiazol-5-yl)phenyl)ethyl)pyrrolidine-2-carboxamide] | – | – | – | Dmax [4]: > 75%; DC50 [5]: < 2.5 nM
Cc1ncsc1-c1ccc([C@H](C)NC(=O)[C@@H]2C[C@@H](O)CN2C(=O)[C@@H](c2cc(OCC#Cc3ccc(O[C@H]4C[C@H](Oc5cc(N6C7CCC6CN(c6cc(-c8ccccc8O)nnc6N)C7)ccn5)C4)cn3)no2)C(C)C)cn1 [compound 237, (2S,4R)-1-((2R)-2-(3-((3-(5-((1r,3R)-3-((4-(3-(3-amino-6-(2-hydroxyphenyl)pyridazin-4-yl)-3,8-diazabicyclo[3.2.1]octan-8-yl)pyridin-2-yl)oxy)cyclobutoxy)pyridin-2-yl)prop-2-yn-1-yl)oxy)isoxazol-5-yl)-3-methylbutanoyl)-4-hydroxy-N-((S)-1-(6-(4-methylthiazol-5-yl)pyridin-3-yl)ethyl)pyrrolidine-2-carboxamide] | < 2.5 | > 75 | – | –
Cc1ncsc1-c1ccc([C@H](C)NC(=O)[C@@H]2C[C@@H](O)CN2C(=O)[C@@H](c2cc(OCCN3CCC(O[C@H]4C[C@H](C#Cc5cc(N6C7CCC6CN(c6cc(-c8ccccc8O)nnc6N)C7)ccn5)C4)CC3)no2)C(C)C)cc1 [compound 216, (2S,4R)-1-((2R)-2-(3-(2-(4-((1r,3R)-3-((4-(3-(3-amino-6-(2-hydroxyphenyl)pyridazin-4-yl)-3,8-diazabicyclo[3.2.1]octan-8-yl)pyridin-2-yl)ethynyl)cyclobutoxy)piperidin-1-yl)ethoxy)isoxazol-5-yl)-3-methylbutanoyl)-4-hydroxy-N-((S)-1-(4-(4-methylthiazol-5-yl)phenyl)ethyl)pyrrolidine-2-carboxamide] | < 2.5 | > 75 | – | –
COC[C@H](NC(=O)[C@@H]1C[C@@H](O)CN1C(=O)[C@@H](c1cc(N2CCC(CN3CCC(O[C@H]4C[C@H](Oc5cc(N6C7CCC6CN(c6cc(-c8ccccc8O)nnc6N)C7)ccn5)C4)CC3)CC2)no1)C(C)C)c1ccc(-c2scnc2C)cc1 [compound 668, (2S,4R)-1-((2R)-2-(3-(4-((4-((1r,3r)-3-((4-(3-(3-amino-6-(2-hydroxyphenyl)pyridazin-4-yl)-3,8-diazabicyclo[3.2.1]octan-8-yl)pyridin-2-yl)oxy)cyclobutoxy)piperidin-1-yl)methyl)piperidin-1-yl)isoxazol-5-yl)-3-methylbutanoyl)-4-hydroxy-N-((R)-2-methoxy-1-(4-(4-methylthiazol-5-yl)phenyl)ethyl)pyrrolidine-2-carboxamide] | < 2.5 | – | > 75 | –
Cc1ncsc1-c1ccc([C@H](C)NC(=O)[C@@H]2C[C@@H](O)CN2C(=O)[C@@H](c2cc(N3CCN(CC#Cc4ncc(O[C@H]5C[C@H](Oc6cc(N7C8CCC7CN(c7cc(-c9ccccc9O)nnc7N)C8)ccn6)C5)cn4)CC3)no2)C(C)C)cc1 [compound 522, (2S,4R)-1-((2R)-2-(3-(4-(3-(5-((1r,3r)-3-((4-(3-(3-amino-6-(2-hydroxyphenyl)pyridazin-4-yl)-3,8-diazabicyclo[3.2.1]octan-8-yl)pyridin-2-yl)oxy)cyclobutoxy)pyrimidin-2-yl)prop-2-yn-1-yl)piperazin-1-yl)isoxazol-5-yl)-3-methylbutanoyl)-4-hydroxy-N-((S)-1-(4-(4-methylthiazol-5-yl)phenyl)ethyl)pyrrolidine-2-carboxamide] | – | – | – | DC50 (BRM degradation, read-out: BRM DC50): < 2.5 nM; Dmax [4]: > 75%
